Laboratory results as given in patent publication US11142525B2 (Pfizer Inc., priority 2018, dated 2021).
Read-outs that look alike come from different tables or passages of the source.

Legend:
[1] = test system: phospho-SLP-76 (Ser376) in Jurkat cells; test: Phospho-SLP-76 (Ser376) Homogeneous Time Resolved Fluorescence (HTRF) assay in Jurkat cells; format: cell-based; details: Homo sapiens, read-out: SLP76 Assay_IC50
Method: Jurkat cells were seeded at 90,000 cells/well in 90 uL of RPMI1640 growth medium containing 10% FBS and incubated at 37° C. with 5% CO2 overnight. The following day, compounds were serially diluted from a 10 mM top dose for an 11-point 3 fold dilution curve in DMSO. Compounds were intermediately diluted 1:100 into growth media prior to diluting 1:10 on cells for final concentration 10 μM to 0.1 nM in 0.1% DMSO. After 30 minutes pre-treatment with compounds, the cells were stimulated using 200 μg/mL of F(ab)2 complexed anti-CD3 (clone UCTH1) for 15 min at 37° C. with 5% CO2. Stimulation was stopped with ice cold PBS and cells were harvested by centrifugation before lysis in Cisbio lysis buffer (Cisbio, Bedford, Mass.). Lysates were transferred to white, low-volume plates containing anti-phospho-SLP-76-Cryptate plus anti-phospho-SLP-76-d2 HTRF antibodies and incubated overnight at room temperature protected from light according to the manufacturer's protocol (Cisbio, Bedford, Mass.). HTRF was measured on a Perkin Elmer Envision and IC50 values were calculated by concentration-response curve fitting utilizing four-parameter nonlinear regression analyses.

[2] = target: human full-length recombinant HPK1 (Homo sapiens (Human), UniProt Q92918); test: HPK1 biochemical enzyme assay, microfluidic mobility shift assay (MSA); details: read-out: HPK1 Enzyme Assay_Ki
Method: HPK1 enzyme inhibition was measured using a microfluidic mobility shift assay (MSA). […] The reactions were conducted for 60 min at 37° C., stopped by the addition of 50 μL of 0.015 M EDTA, pH 8, and the extent of reactions (˜15-20% conversion with no inhibitor) was determined after electrophoretic separation of the fluorescently labeled peptide substrate and phosphorylated product on an LabChip EZ Reader II (PerkinElmer, Inc., Waltham, Mass.). […]

[3] = 30 min pre-treatment, anti-CD3 stimulation 15 min, HTRF
[4] = mobility shift assay, 75 μM ATP, Morrison equation, tight-binding competitive inhibition
[5] = Phospho-SLP-76 (Ser376) HTRF, anti-CD3 stimulation

Chain of human full-length recombinant HPK1 (Q92918 whole entry): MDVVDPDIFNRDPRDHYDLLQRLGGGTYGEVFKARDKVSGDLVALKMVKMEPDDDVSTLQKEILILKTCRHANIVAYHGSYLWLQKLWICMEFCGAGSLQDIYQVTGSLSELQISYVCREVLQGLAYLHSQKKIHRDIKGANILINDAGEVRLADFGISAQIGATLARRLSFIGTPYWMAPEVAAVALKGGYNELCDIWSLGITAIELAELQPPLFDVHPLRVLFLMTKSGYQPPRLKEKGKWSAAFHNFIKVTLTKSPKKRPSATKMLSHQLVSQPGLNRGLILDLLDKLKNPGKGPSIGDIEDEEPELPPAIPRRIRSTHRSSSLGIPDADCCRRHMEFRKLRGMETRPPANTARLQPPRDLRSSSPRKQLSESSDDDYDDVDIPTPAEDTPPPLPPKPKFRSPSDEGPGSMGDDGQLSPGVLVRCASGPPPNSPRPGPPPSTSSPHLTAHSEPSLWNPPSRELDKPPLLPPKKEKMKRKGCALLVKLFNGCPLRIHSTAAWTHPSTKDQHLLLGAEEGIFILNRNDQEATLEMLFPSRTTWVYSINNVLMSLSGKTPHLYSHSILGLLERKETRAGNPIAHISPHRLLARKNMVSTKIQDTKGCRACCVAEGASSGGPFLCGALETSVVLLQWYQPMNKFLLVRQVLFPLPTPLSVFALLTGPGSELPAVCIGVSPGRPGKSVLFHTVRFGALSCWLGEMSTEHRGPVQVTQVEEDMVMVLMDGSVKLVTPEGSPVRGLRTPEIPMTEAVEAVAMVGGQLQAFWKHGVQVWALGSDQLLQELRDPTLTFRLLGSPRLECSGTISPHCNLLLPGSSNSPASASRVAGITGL

Row | IC50 [1, 3] [nM] | Ki [2, 4] [nM] | IC50 [1, 5] [nM] | Ki ([2]; HPK1 mobility shift assay) [nM] | Compound
1 | 101 | < 0.05 | – | – | CC[C@@H](CC(F)(F)F)n1cnnc1-c1cccc(N2Cc3c(cc(N(C)C)nc3CNC)C2=O)n1 (single isomer, unassigned) [Example 18, 6-(dimethylamino)-4-[(methylamino)methyl]-2-(6-{4-[(3ξ)-1,1,1-trifluoropentan-3-yl]-4H-1,2,4-triazol-3-yl}pyridin-2-yl)-2,3-dihydro-1H-pyrrolo[3,4-c]pyridin-1-one]
2 | > 10000 | 6.9 | – | – | CC[C@H](CC(F)(F)F)n1cnnc1-c1cccc(N2Cc3c(cc(N(C)C)nc3CNC)C2=O)n1 (single isomer, unassigned) [Example 19, 6-(dimethylamino)-4-[(methylamino)methyl]-2-(6-{4-[(3ξ)-1,1,1-trifluoropentan-3-yl]-4H-1,2,4-triazol-3-yl}pyridin-2-yl)-2,3-dihydro-1H-pyrrolo[3,4-c]pyridin-1-one]
3 | 1520 | 7.1 | – | – | CC[C@H](CC(F)(F)F)n1cnnc1-c1cccc(N2Cc3c(cc(C(C)(C)C)nc3CNC)C2=O)n1 (single isomer, unassigned) [Example 51, 6-tert-butyl-4-[(methylamino)methyl]-2-(6-{4-[(3ξ)-1,1,1-trifluoropentan-3-yl]-4H-1,2,4-triazol-3-yl}pyridin-2-yl)-2,3-dihydro-1H-pyrrolo[3,4-c]pyridin-1-one]
4 | – | – | 1020 | 4.48 | CC[C@@H](CC(F)(F)F)n1cnnc1-c1cccc(N2Cc3c(cc(N(C)C(C)C)nc3CNC)C2=O)n1 (single isomer, unassigned) [Example 72, 4-[(methylamino)methyl]-6-[methyl(propan-2-yl)amino]-2-(6-{4-[(3ξ)-1,1,1-trifluoropentan-3-yl]-4H-1,2,4-triazol-3-yl}pyridin-2-yl)-2,3-dihydro-1H-pyrrolo[3,4-c]pyridin-1-one]
5 | – | – | 61 | 0.22 | CC[C@H](CC(F)(F)F)n1cnnc1-c1cccc(N2Cc3c(cc(N(C)C(C)C)nc3CNC)C2=O)n1 (single isomer, unassigned) [Example 73, 4-[(methylamino)methyl]-6-[methyl(propan-2-yl)amino]-2-(6-{4-[(3ξ)-1,1,1-trifluoropentan-3-yl]-4H-1,2,4-triazol-3-yl}pyridin-2-yl)-2,3-dihydro-1H-pyrrolo[3,4-c]pyridin-1-one]
6 | 112 | 0.15 | – | – | CNCc1nc(N(C)C)cc2c1CN(c1cccc(-c3nncn3C(C)C)n1)C2=O [Example 1, 6-(dimethylamino)-4-[(methylamino)methyl]-2-{6-[4-(propan-2-yl)-4H-1,2,4-triazol-3-yl]pyridin-2-yl}-2,3-dihydro-1H-pyrrolo[3,4-c]pyridin-1-one]
7 | 86 | 0.28 | – | – | CNCc1nc(N2CCC2)cc2c1CN(c1cccc(-c3nncn3C(C)C)n1)C2=O [Example 2, 6-(azetidin-1-yl)-4-[(methylamino)methyl]-2-{6-[4-(propan-2-yl)-4H-1,2,4-triazol-3-yl]pyridin-2-yl}-2,3-dihydro-1H-pyrrolo[3,4-c]pyridin-1-one]
8 | 106 | 0.39 | – | – | CCN(CC)c1cc2c(c(CNC)n1)CN(c1cccc(-c3nncn3C(C)C)n1)C2=O [Example 4, 6-(diethylamino)-4-[(methylamino)methyl]-2-{6-[4-(propan-2-yl)-4H-1,2,4-triazol-3-yl]pyridin-2-yl}-2,3-dihydro-1H-pyrrolo[3,4-c]pyridin-1-one]
9 | 186 | 0.39 | – | – | CNCc1nc(C2CC2)cc2c1CN(c1cccc(-c3nncn3C(C)C)n1)C2=O [Example 5, 6-cyclopropyl-4-[(methylamino)methyl]-2-{6-[4-(propan-2-yl)-4H-1,2,4-triazol-3-yl]pyridin-2-yl}-2,3-dihydro-1H-pyrrolo[3,4-c]pyridin-1-one]
10 | 39 | 0.13 | – | – | CNCc1nc(N(C)C(C)C)cc2c1CN(c1cccc(-c3nncn3C(C)C)n1)C2=O [Example 6, 4-[(methylamino)methyl]-6-[methyl(propan-2-yl)amino]-2-{6-[4-(propan-2-yl)-4H-1,2,4-triazol-3-yl]pyridin-2-yl}-2,3-dihydro-1H-pyrrolo[3,4-c]pyridin-1-one]
11 | 730 | 1.46 | – | – | CNCc1nc(C2(C)CC2)cc2c1CN(c1cccc(-c3nncn3C(C)C)n1)C2=O [Example 7, 4-[(methylamino)methyl]-6-(1-methylcyclopropyl)-2-{6-[4-(propan-2-yl)-4H-1,2,4-triazol-3-yl]pyridin-2-yl}-2,3-dihydro-1H-pyrrolo[3,4-c]pyridin-1-one]
12 | 89 | 0.25 | – | – | CNCc1nc(N2[C@H](C)CC[C@H]2C)cc2c1CN(c1cccc(-c3nncn3C(C)C)n1)C2=O [Example 8, 6-[(2R,5R)-2,5-dimethylpyrrolidin-1-yl]-4-[(methylamino)methyl]-2-{6-[4-(propan-2-yl)-4H-1,2,4-triazol-3-yl]pyridin-2-yl}-2,3-dihydro-1H-pyrrolo[3,4-c]pyridin-1-one]
13 | 88 | 0.27 | – | – | CCN(CC)c1cc2c(c(CNC)n1)CN(c1cccc(-c3nncn3CC)n1)C2=O [Example 9, 6-(diethylamino)-2-[6-(4-ethyl-4H-1,2,4-triazol-3-yl)pyridin-2-yl]-4-[(methylamino)methyl]-2,3-dihydro-1H-pyrrolo[3,4-c]pyridin-1-one]
14 | 97.6 | 0.26 | – | – | CNCc1nc(N(C)C)cc2c1CN(c1cccc(N3C(=O)OC[C@@H]3C)n1)C2=O [Example 10, 6-(dimethylamino)-4-[(methylamino)methyl]-2-{6-[(4S)-4-methyl-2-oxo-1,3-oxazolidin-3-yl]pyridin-2-yl}-2,3-dihydro-1H-pyrrolo[3,4-c]pyridin-1-one]
15 | 159 | 0.09 | – | – | CC(C)c1[nH]ncc1-c1cccc(N2Cc3c(cc(N(C)C)nc3CN)C2=O)n1 [Example 11, 4-(aminomethyl)-6-(dimethylamino)-2-{6-[5-(propan-2-yl)-1H-pyrazol-4-yl]pyridin-2-yl}-2,3-dihydro-1H-pyrrolo[3,4-c]pyridin-1-one]
16 | 155 | 0.2 | – | – | CC(C)n1cnnc1-c1cccc(N2Cc3c(cc(N(C)C)nc3CN)C2=O)n1 [Example 12, 4-(aminomethyl)-6-(dimethylamino)-2-{6-[4-(propan-2-yl)-4H-1,2,4-triazol-3-yl]pyridin-2-yl}-2,3-dihydro-1H-pyrrolo[3,4-c]pyridin-1-one]
17 | 85 | < 0.08 | – | – | C[C@@H](CC(F)(F)F)n1cnnc1-c1cccc(N2Cc3c(cc(N(C)C)nc3CN)C2=O)n1 [Example 13, 4-(aminomethyl)-6-(dimethylamino)-2-(6-{4-[(2S)-4,4,4-trifluorobutan-2-yl]-4H-1,2,4-triazol-3-yl}pyridin-2-yl)-2,3-dihydro-1H-pyrrolo[3,4-c]pyridin-1-one]
18 | 102 | 0.17 | – | – | CC[C@H](C)n1cnnc1-c1cccc(N2Cc3c(cc(N(C)C)nc3CNC)C2=O)n1 [Example 14, 2-(6-{4-[(2S)-butan-2-yl]-4H-1,2,4-triazol-3-yl}pyridin-2-yl)-6-(dimethylamino)-4-[(methylamino)methyl]-2,3-dihydro-1H-pyrrolo[3,4-c]pyridin-1-one]
19 | 358 | 0.56 | – | – | CN(C)c1cc2c(c(CN)n1)CN(c1cccc(-c3nncn3CC3CC3)n1)C2=O [Example 16, 4-(aminomethyl)-2-{6-[4-(cyclopropylmethyl)-4H-1,2,4-triazol-3-yl]pyridin-2-yl}-6-(dimethylamino)-2,3-dihydro-1H-pyrrolo[3,4-c]pyridin-1-one]
20 | 70 | < 0.05 | – | – | CNCc1nc(N(C)C)cc2c1CN(c1cccc(-c3nncn3[C@@H](C)CC(F)(F)F)n1)C2=O [Example 17, 6-(dimethylamino)-4-[(methylamino)methyl]-2-(6-{4-[(2S)-4,4,4-trifluorobutan-2-yl]-4H-1,2,4-triazol-3-yl}pyridin-2-yl)-2,3-dihydro-1H-pyrrolo[3,4-c]pyridin-1-one]
21 | 158 | 2.8 | – | – | CCn1cnnc1-c1cccc(N2Cc3c(cc(N(C)C)nc3CNC)C2=O)n1 [Example 20, 6-(dimethylamino)-2-[6-(4-ethyl-4H-1,2,4-triazol-3-yl)pyridin-2-yl]-4-[(methylamino)methyl]-2,3-dihydro-1H-pyrrolo[3,4-c]pyridin-1-one]
22 | – | – | 53 | – | CCCn1c(C)nnc1-c1cccc(N2Cc3c(cc(N4CCC[C@@H]4C)nc3CNC)C2=O)n1 [Example 134, 4-[(methylamino)methyl]-2-[6-(5-methyl-4-propyl-4H-1,2,4-triazol-3-yl)pyridin-2-yl]-6-[(2S)-2-methylpyrrolidin-1-yl]-2,3-dihydro-1H-pyrrolo[3,4-c]pyridin-1-one]
23 | – | – | 112 | – | CCCn1c(C)nnc1-c1cccc(N2Cc3c(cc(N4CCC[C@@H]4C)nc3CN)C2=O)n1 [Example 159]
24 | – | – | 65 | – | Cc1nnc(-c2cccc(N3Cc4c(cc(N5CCCC5(C)C)nc4CN)C3=O)n2)n1C(C)C [Example 164]
